Reference: patent publication US4656274A, “Polyfluorinated substituted tricyclic quinoline mono and dioxo antifungal agents and process for their preparation” (Ortho Pharmaceutical Corporation, priority 1985, dated 1987)
In brackets after ≈: the same amount, converted by molar mass.

Legend:
Test in all cases: Microbiological minimum inhibitory concentration test (agar dilution)
Format in all cases: cell-based
[1] = test system: Candida albicans ATCC 10231; conditions: ATCC10231, Mycophil Agar with low pH, 32° C., growth read at 24 and 48 hours and 7 days, read-out: MIC (minimal inhibitory concentration)
Experimental: (§1) The antifungal activity of the polyfluorinated substituted quinoline mono- and dioxo compounds was determined according to the following procedure:
(§2) MICROBIOLOGICAL MINIMUM INHIBITORY CONCENTRATION TEST
Candida albicans ATCC 10231
(§3) Mycophil Agar with low pH
(§4) A 0.5 mg/ml stock solution of each compound was volumetrically prepared in an appropriate solvent From this stock, 1:2 serial dilutions were prepared in sterile distilled water. Two ml aliquots of the stock and serial dilutions were added to tubes containing 18 ml of mycophil agar (46°-50° C.). Mixtures were poured into square 100×15 mm petri dishes and allowed to solidify.
(§5) All test organisms, except Candida albicans were harvested from six day mycophil agar slants. Candida albicans was diluted from a frozen stock culture. Inocula were diluted with sterile saline to contain approximately 1×10^8 CFUs per ml. Plate counts were performed on 1 ml of all inocula.
(§6) Each plate and appropriate solvent and unadulterated agar growth control was inoculated in duplicate with the inocula prepared above using a Steer's Replicator method.
(§7) Plates were then incubated at 32° C. Observations for growth were made at 24 and 48 hours and 7 days.
(§8) These MIC data are found in Table I.

[2] = test system: Trichophyton mentagrophytes ATCC 22839; conditions: ATCC22839, Mycophil Agar with low pH, 32° C., growth read at 24 and 48 hours and 7 days, read-out: MIC (minimal inhibitory concentration)
Experimental: as §1, §2
Trichophyton mentagrophytes ATCC 22839
as §3, §4, §5, §6, §7, §8

[3] = test system: Trichophyton rubrum ATCC 10218; conditions: ATCC10218, Mycophil Agar with low pH, 32° C., growth read at 24 and 48 hours and 7 days, read-out: MIC (minimal inhibitory concentration)
Experimental: as §1, §2
Trichophyton rubrum ATCC 10218
as §3, §4, §5, §6, §7, §8

[4] = test system: Epidermophyton floccosum ATCC 15693; conditions: ATCC15693, Mycophil Agar with low pH, 32° C., growth read at 24 and 48 hours and 7 days, read-out: MIC (minimal inhibitory concentration)
Experimental: as §1, §2
Epidermophyton floccosum ATCC 15693
as §3, §4, §5, §6, §7, §8

[5] = test system: Microsporum gypseum ATCC 14683; conditions: Nannizzia gypsea, ATCC14683, Mycophil Agar with low pH, 32° C., growth read at 24 and 48 hours and 7 days, read-out: MIC (minimal inhibitory concentration)
Experimental: as §1, §2
Microsporum gypseum ATCC 14683
as §3, §4, §5, §6, §7, §8

[6] = test system: Microsporum canis JJP #143; conditions: Mycophil Agar with low pH, 32° C., growth read at 24 and 48 hours and 7 days, read-out: MIC (minimal inhibitory concentration)
Experimental: as §1, §2
Microsporum canis JJP #143
as §3, §4, §5, §6, §7, §8

SMILES | MIC [1] [µg/mL] | MIC [2] [µg/mL] | MIC [3] [µg/mL] | MIC [4] [µg/mL] | MIC [5] [µg/mL] | MIC [6] [µg/mL]
Cn1c(=O)c2cc3c(F)c(F)c(F)c(F)c3nc2n(C)c1=O [I, 5,6,7,8-Tetrafluoro-1,3-dimethylpyrimidinol[6,5-b]quinolin-2,4-dione] | 50 (≈ 160 µM) | 25 (≈ 79.8 µM) | 1.6 (≈ 5.11 µM) | 0.39 (≈ 1.25 µM) | 4.6 (≈ 14.7 µM) | 25 (≈ 79.8 µM)
CC1(C)CC(=O)c2cc3c(F)c(F)c(F)c(F)c3nc2C1 [II, 5,6,7,8-Tetrafluoro-2,2-dimethylbenzo[2,1-b]quinolin-4-one] | 50 (≈ 168 µM) | 6.2 (≈ 20.9 µM) | 6.2 (≈ 20.9 µM) | 1.5 (≈ 5.05 µM) | 9.4 (≈ 31.6 µM) | 25 (≈ 84.1 µM)
